According to patent publication US20120083522A1, “MODULATION OF INFLAMMATORY RESPONSES BY FACTOR XI” (Isis Pharmaceuitcals, inc., priority 2009, published 2012):
In the oligonucleotide strings, read from the 5' end, every base follows the letter of its sugar. An asterisk marks phosphorothioate; unmarked linkages are phosphodiester. Other units and linkages are bracketed, terminal groups are in braces. A string of capitals states the bases alone. e = 2'-O-(2-methoxyethyl) (MOE); [5mC] = 5-methylcytosine; d = 2'-deoxy (DNA)

Tests used:
human Factor XI mRNA = assay: Dose-dependent inhibition and IC50 in HepG2 cells, microwalk gapmers, electroporation (Example 16); type: cell-based
Description: These gapmers were tested at various doses in HepG2 cells. Cells were plated at a density of 20,000 cells per well and transfected using electroporation with 375 nM, 750 nM, 1,500 nM, 3,000 nM, 6,000 nM and 12,000 nM concentrations of antisense oligonucleotide, as specified in Table 54. After a treatment period of approximately 16 hours, RNA was isolated from the cells and Factor XI mRNA levels were measured by quantitative real-time PCR. Human Factor XI primer probe set RTS 2966 was used to measure mRNA levels. Factor XI mRNA levels were adjusted according to total RNA content, as measured by RIBOGREEN. Results are presented as percent inhibition of Factor XI, relative to untreated control cells.
ISIS 416850, ISIS 416858, ISIS 445522, and ISIS 445531 (see Table 52 above) were re-tested in vitro along with the microwalk gapmers under the same conditions described above.
The chimeric antisense oligonucleotides in Table 53 were designed as 3-8-3 MOE, 4-8-4 MOE, 2-10-2 MOE, 3-10-3 MOE, or 4-10-4 MOE gapmers. The 3-8-3 gapmer is 14 nucleotides in length, wherein the central gap segment is comprised of eight 2′-deoxynucleotides and is flanked on both sides (in the 5′ and 3′ directions) by wings comprising three nucleotides each. The 4-8-4 gapmer is 16 nucleotides in length, wherein the central gap segment is comprised of eight 2′-deoxynucleotides and is flanked on both sides (in the 5′ and 3′ directions) by wings comprising four nucleotides each. The 2-10-2 gapmer is 14 nucleotides in length, wherein the central gap segment is comprised of ten 2′-deoxynucleotides and is flanked on both sides (in the 5′ and 3′ directions) by wings comprising two nucleotides each. The 3-10-3 gapmer is 16 nucleotides in length, wherein the central gap segment is comprised of ten 2′-deoxynucleotides and is flanked on both sides (in the 5′ and 3′ directions) by wings comprising three nucleotides each. The 4-10-4 gapmer is 18 nucleotides in length, wherein the central gap segment is comprised of ten 2′-deoxynucleotides and is flanked on both sides (in the 5′ and 3′ directions) by wings comprising four nucleotides each. For each of the motifs (3-8-3, 4-8-4, 2-10-2, 3-10-3, and 4-10-4), each nucleotide in the 5′ wing segment and each nucleotide in the 3′ wing segment has a 2′-MOE modification. The internucleoside linkages throughout each gapmer are phosphorothioate (P═S) linkages. All cytidine residues throughout each gapmer are 5-methylcytidines. “Human Target start site” indicates the 5′-most nucleotide to which the gapmer is targeted in the human sequence. “Human Target stop site” indicates the 3′-most nucleotide to which the gapmer is targeted in the human sequence. Each gapmer listed in Table 53 is targeted to SEQ ID NO: 1 (GENBANK Accession No. NM_000128.3). Each gapmer is Table 53 is also fully cross-reactive with the rhesus monkey Factor XI gene sequence, designated herein as SEQ ID NO: 274 (exons 1-15 GENBANK Accession No. NW—001118167.1). ‘Rhesus monkey start site’ indicates the 5′-most nucleotide to which the gapmer is targeted in the rhesus monkey sequence. ‘Rhesus monkey stop site’ indicates the 3′-most nucleotide to which the gapmer is targeted to the rhesus monkey sequence.
The first two listed gapmers in Table 54 are the original gapmers (ISIS 416850 and ISIS 416858) from which the remaining gapmers were designed via microwalk and are designated by an asterisk.

murine Factor XI protein = assay: In vivo antisense inhibition of murine Factor XI: plasma protein analysis (Example 10); conditions: BALB/c mice; for % inhibition: Factor XI protein, relative to PBS control
Description: BALB/c mice were injected with 5 mg/kg, 10 mg/kg, 25 mg/kg, or 50 mg/kg of ISIS 404057 or ISIS 404071 twice a week for 3 weeks. A control group of mice was injected with phosphate buffered saline (PBS) twice a week for 3 weeks. Mice were sacrificed 5 days after receiving the last dose. Whole liver was harvested for RNA analysis and plasma was collected for protein analysis.
Results are presented as percent inhibition of Factor XI, relative to PBS control.

[1] = Arthritis Study B: liver and spleen weight, ALT, AST; type: in vivo; conditions: collagen-treated DBA/1J mice, 20 mg/kg s.c. twice a week for ten weeks
Description: In a group of 20 DBA/1J mice, 20 mg/kg of ISIS 404071 were injected subcutaneously twice a week for ten weeks. In a second group of 20 DBA/1J mice, 20 mg/kg of ISIS 404057 were injected subcutaneously twice a week for ten weeks. In a third control group of 20 DBA/1J mice, 20 mg/kg of ISIS 421208 were injected subcutaneously twice a week for ten weeks. Two control groups of 20 mice each were injected with PBS twice a week for ten weeks.
Mice in all groups were examined daily after day 30 after the first collagen injection for the visual appearance of arthritis in peripheral joints. The results in Table 22 are expressed as percent change compared to the PBS control except for the liver and spleen weight.

bradykinin = assay: Colitis Study E: bradykinin levels in colon; type: in vivo, Swiss Webb mice; conditions: for Bradykinin levels in the colons: DSS-treated mice, day 7, 40 mpk
Description: Two groups 8 Swiss Webb mice were dosed with 40 mg/kg of ISIS 404071 injected subcutaneously twice a week for 3 weeks. Two control groups of 8 Swiss Webb mice were dosed with PBS subcutaneously twice a week for 3 weeks. Both the ASO treated groups and one of the control groups were then given 4% DSS in distilled water for 7 days ad libitum. One of the ASO and DSS treated groups was also given intravenous injections of 20 μg of recombinant human Factor XI protein (Haematologic Technologies Inc.) for 7 consecutive days, starting the day before DSS treatment. Mice were sacrificed at the end of the study on day 7 after DSS was administered.
The effect of antisense inhibition of Factor XI on kinin levels in the colon was evaluated (Phoenix Pharmaceuticals, Burlingame, Calif.) at the end of the study on day 7 after DSS was administered and the results are presented in Table 40.

In the case of “416850 (antisense TGCACAGTTTCTGGCAGGCC; 5-10-5 gapmer, wing sugar chemistry not given here, further chemistry not given here) [compound 416850]”, the “percent inhibition of Factor XI mRNA” value (human Factor XI mRNA; electroporation, 375 nM) is reported as 40%, the “percent inhibition of Factor XI mRNA” value (human Factor XI mRNA; electroporation, 750 nM) is reported as 59% and the “percent inhibition of Factor XI mRNA” value (human Factor XI mRNA; electroporation, 1,500 nM) is reported as 69%. For the same substance, the “percent inhibition of Factor XI mRNA” value (human Factor XI mRNA; electroporation, 3,000 nM) was 87%, the “percent inhibition of Factor XI mRNA” value (human Factor XI mRNA; electroporation, 6,000 nM) was 90% and the “percent inhibition of Factor XI mRNA” value (human Factor XI mRNA; electroporation, 12,000 nM) was 95%.

In the case of “416858 (antisense ACGGCATTGGTGCACAGTTT; 5-10-5 gapmer, wing sugar chemistry not given here, further chemistry not given here) [compound 416858]”, the “percent inhibition of Factor XI mRNA” value (human Factor XI mRNA; electroporation, 375 nM) is reported as 31%, the “percent inhibition of Factor XI mRNA” value (human Factor XI mRNA; electroporation, 750 nM) is reported as 35% and the “percent inhibition of Factor XI mRNA” value (human Factor XI mRNA; electroporation, 1,500 nM) is reported as 78%. For the same substance, the “percent inhibition of Factor XI mRNA” value (human Factor XI mRNA; electroporation, 3,000 nM) was 85%, the “percent inhibition of Factor XI mRNA” value (human Factor XI mRNA; electroporation, 6,000 nM) was 90% and the “percent inhibition of Factor XI mRNA” value (human Factor XI mRNA; electroporation, 12,000 nM) was 93%.

For “445522 (antisense eG*e[5mC]*eA*e[5mC]*eA*dG*dT*dT*dT*d[5mC]*dT*dG*dG*e[5mC]*eA*eG*eG*e[5mC]) [compound 445522]”, the “percent inhibition of Factor XI mRNA” value (human Factor XI mRNA; electroporation, 375 nM) was 59%, the “percent inhibition of Factor XI mRNA” value (human Factor XI mRNA; electroporation, 750 nM) was 71% and the “percent inhibition of Factor XI mRNA” value (human Factor XI mRNA; electroporation, 1,500 nM) was 83%. The “percent inhibition of Factor XI mRNA” value (human Factor XI mRNA; electroporation, 3,000 nM) was 82%, the “percent inhibition of Factor XI mRNA” value (human Factor XI mRNA; electroporation, 6,000 nM) was 81% and the “percent inhibition of Factor XI mRNA” value (human Factor XI mRNA; electroporation, 12,000 nM) was 92%.

In the case of “445531 (antisense eG*eG*e[5mC]*eA*eT*dT*dG*dG*dT*dG*d[5mC]*dA*d[5mC]*eA*eG*eT*eT*eT) [compound 445531]”, the “percent inhibition of Factor XI mRNA” value (human Factor XI mRNA; electroporation, 375 nM) is reported as 44%, the “percent inhibition of Factor XI mRNA” value (human Factor XI mRNA; electroporation, 750 nM) is reported as 64% and the “percent inhibition of Factor XI mRNA” value (human Factor XI mRNA; electroporation, 1,500 nM) is reported as 78%. For the same substance, the “percent inhibition of Factor XI mRNA” value (human Factor XI mRNA; electroporation, 3,000 nM) was 86%, the “percent inhibition of Factor XI mRNA” value (human Factor XI mRNA; electroporation, 6,000 nM) was 91% and the “percent inhibition of Factor XI mRNA” value (human Factor XI mRNA; electroporation, 12,000 nM) was 93%.

With “TGGTAATCCACTTTCAGAGG (eT*eG*eG*eT*eA*dA*dT*d[5mC]*d[5mC]*dA*d[5mC]*dT*dT*dT*d[5mC]*eA*eG*eA*eG*eG) [ISIS 404071, 5-10-5 MOE gapmer targeting murine Factor XI, target start site 869]” the “Factor XI protein (in words)” value (murine Factor XI protein; 5-50 mg/kg twice a week for 3 weeks) was “significant dose-dependent reduction of Factor XI protein”, the “% inhibition” value (murine Factor XI protein; 5 mg/kg twice a week for 3 weeks) was 39% and the “% inhibition” value (murine Factor XI protein; 10 mg/kg twice a week for 3 weeks) was 67%. The “% inhibition” value (murine Factor XI protein; 25 mg/kg twice a week for 3 weeks) was 89%, the “% inhibition” value (murine Factor XI protein; 50 mg/kg twice a week for 3 weeks) was 96% and the “Liver ALT” value [1] was 56.6. For the same substance, the “Liver AST” value [1] was 86.75, the “Liver Weight as a % of Body Weight” value [1] was 6.089% and the “Spleen Weight as a % of Body Weight” value [1] was 0.759 % of Body Weight. For the same substance, the “bradykinin levels (in words)” value (bradykinin; Colitis Study E, day 7) was “decreased”, the “Bradykinin levels in the colons” value (bradykinin; no human recombinant FXI) was 0.1 ng/mg and the “Bradykinin levels in the colons” value (bradykinin; plus human recombinant FXI 20 ug/mouse/day) was 0.3 ng/mg.
